# Results taken from US20260001928A1 (CORTERIA PHARMACEUTICALS, priority 2022, published 2026).
# *1 amine or outer side, *2 acyl side, *3 side chain or, on linkers, in order; H or OH if unused. Where a SMILES comes first, the peptide text is derived from it. Side-chain parts run from the residue outwards. [ ]: non-standard residue; d: D form. The star is where a group is joined. C18 diacid = O=C(O)CCCCCCCCCCCCCCCCC(=O)*; γGlu = O=C(O)[C@H](CCC(=O)[*:2])N[*:1]; NMeI = CC[C@H](C)[C@H](NC)C(=O)O; Api = NC1(C(=O)O)CCNCC1; Abu = CC[C@H](N)C(=O)O; Dap = NC[C@H](N)C(=O)O; AEEA = NCCOCCOCC(=O)O
# Key:
# human CRF2a receptor = biological target: T1, human CRF2a receptor (Homo sapiens, UniProt Q13324); experiment: Activity at human CRF2a receptor, cAMP functional assay in TeloHEAC cells; type: cell-based; conditions: TeloHEAC cells stably expressing human CRF2a receptor, relative to urocortin 2 (100 nM = 100%)
# T1 construct: expressed in transfected cells; host or cells: TeloHEAC cells
# T1 sequence (Q13324 1-411): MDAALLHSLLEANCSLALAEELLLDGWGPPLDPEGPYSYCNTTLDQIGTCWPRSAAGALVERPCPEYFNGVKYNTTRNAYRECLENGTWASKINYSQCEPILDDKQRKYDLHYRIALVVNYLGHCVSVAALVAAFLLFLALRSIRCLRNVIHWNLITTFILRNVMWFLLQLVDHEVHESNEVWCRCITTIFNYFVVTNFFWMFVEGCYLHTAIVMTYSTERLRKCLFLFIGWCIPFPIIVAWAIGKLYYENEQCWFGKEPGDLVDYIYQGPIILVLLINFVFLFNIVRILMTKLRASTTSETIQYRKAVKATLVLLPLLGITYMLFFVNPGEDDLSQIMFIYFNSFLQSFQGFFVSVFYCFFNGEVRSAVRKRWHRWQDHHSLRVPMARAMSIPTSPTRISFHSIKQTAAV
# Summary of the method: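 TeloHEAC cells stably expressing human CRF2a (10000 cells/well) were treated with 16-point 1:2 compound dilutions in HBSS/20 mM HEPES with IBMX for 30 min at 37° C. cAMP was read by HTRF (665/620 nm ratio). EC50 was the concentration giving 50% activation, with 100 nM urocortin 2 set as 100%.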
# CFR1R receptor = biological target: T2, CFR1R receptor (Homo sapiens, UniProt P34998); experiment: Activity at anti-target CFR1R receptor, cAMP assay in CRF1R-overexpression CHO-K1 cells; type: cell-based; conditions: 100% = Sauvagine at 100 nM; for EC50: cAMP
# T2 construct: host or cells: CHO-K1 (clone 2)
# T2 sequence (P34998 24-415): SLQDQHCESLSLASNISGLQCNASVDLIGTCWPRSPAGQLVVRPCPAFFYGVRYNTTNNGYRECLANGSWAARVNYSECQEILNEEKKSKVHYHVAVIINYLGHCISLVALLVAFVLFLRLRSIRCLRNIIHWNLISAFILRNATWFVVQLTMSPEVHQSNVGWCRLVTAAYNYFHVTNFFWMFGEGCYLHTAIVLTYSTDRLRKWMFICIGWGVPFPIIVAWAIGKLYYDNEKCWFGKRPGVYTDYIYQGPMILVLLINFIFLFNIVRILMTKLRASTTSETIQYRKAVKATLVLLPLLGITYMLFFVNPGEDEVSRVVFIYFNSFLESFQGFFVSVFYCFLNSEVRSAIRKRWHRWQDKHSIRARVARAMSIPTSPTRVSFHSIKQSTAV
# Summary of the method: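 cAMP readout in CRF1R-overexpressing CHO-K1 cells (clone 2), run as for the TeloHAEC assay at 4000 cells/well final. Cells came from cryopreserved banks. Sauvagine at 100 nM defined 100% activation.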
EC50 (human CRF2a receptor) [nM],Emax (% I) (CFR1R receptor),EC50 (CFR1R receptor) [nM],SMILES
0.05,13,> 250,CC[C@H](NC(=O)[C@H](CC(N)=O)NC(=O)[C@@H](NC(=O)[C@H](CCC(=O)O)NC(=O)[C@H](C)NC(=O)[C@H](CCC(N)=O)NC(=O)[C@H](CCC(=O)O)NC(=O)[C@H](CCCNC(=N)N)NC(=O)[C@H](CCC(N)=O)NC(=O)[C@H](CCCCN)NC(=O)[C@H](CCCCN)NC(=O)[C@H](CCC(N)=O)NC(=O)[C@H](CCCCN)NC(=O)[C@H](CCC(=O)O)NC(=O)[C@H](CCC(N)=O)NC(=O)[C@H](CCC(=O)O)NC(=O)[C@H](CC(C)C)NC(=O)[C@H](CC(C)C)NC(=O)[C@@H](NC(=O)[C@H](CCCCN)NC(=O)[C@H](CCCCNC(=O)CC[C@H](NC(=O)CCCCCCCCCCCCCCCCC(=O)O)C(=O)O)NC(=O)[C@H](CC(C)C)NC(=O)[C@H](CCCCN)NC(=O)[C@@H](NC(=O)[C@@H]1CCCN1C(=O)[C@H](NC(=O)[C@H](CC(=O)O)NC(=O)[C@H](CC(C)C)NC(=O)[C@H](CO)NC(=O)[C@H](CC(C)C)NC(=O)[C@@H](NC(=O)[C@@H](NC)[C@@H](C)CC)C(C)C)C(C)C)[C@@H](C)CC)[C@@H](C)CC)[C@@H](C)O)C(=O)N[C@@H](CCC(N)=O)C(=O)N[C@H](C(=O)N[C@@H](CC(C)C)C(=O)N[C@@H](C)C(=O)N[C@@H](CCC(N)=O)C(=O)N[C@H](C(N)=O)C(C)C)[C@@H](C)CC [compound 139] (H-[NMeI]VLSLD[dV]PIKLK([γGlu-C18 diacid])KILLEQEKQKKQREQAETN[Abu]QILAQV-NH2)
0.17,14,> 250,CC[C@H](C)[C@H](NC)C(=O)N[C@H](C(=O)N[C@@H](CC(C)C)C(=O)N[C@@H](CO)C(=O)N[C@@H](CC(C)C)C(=O)N[C@@H](CC(=O)O)C(=O)N[C@@H](C(=O)N1CCC[C@H]1C(=O)N[C@H](C(=O)N[C@@H](CCCCN)C(=O)N[C@@H](CC(C)C)C(=O)N[C@@H](CCCCNC(=O)CC[C@H](NC(=O)CCCCCCCCCCCCCCCCC(=O)O)C(=O)O)C(=O)N[C@@H](CCCCN)C(=O)N[C@H](C(=O)N[C@@H](CC(C)C)C(=O)N[C@@H](CC(C)C)C(=O)N[C@@H](CCC(=O)O)C(=O)N[C@@H](CCC(N)=O)C(=O)N[C@@H](CCC(=O)O)C(=O)N[C@@H](CCCCN)C(=O)N[C@@H](CCC(N)=O)C(=O)N[C@@H](CCCCN)C(=O)N[C@@H](CCCCN)C(=O)N[C@@H](CCC(N)=O)C(=O)N[C@@H](CCCNC(=N)N)C(=O)N[C@@H](CCC(=O)O)C(=O)N[C@@H](CCC(N)=O)C(=O)N[C@@H](C)C(=O)N[C@@H](CCC(=O)O)C(=O)N[C@H](C(=O)N[C@@H](CC(N)=O)C(=O)N[C@@H](CN)C(=O)N[C@@H](CCC(N)=O)C(=O)N[C@H](C(=O)N[C@@H](CC(C)C)C(=O)N[C@@H](C)C(=O)N[C@@H](CCC(N)=O)C(=O)N[C@H](C(N)=O)C(C)C)[C@@H](C)CC)[C@@H](C)O)[C@@H](C)CC)[C@@H](C)CC)C(C)C)C(C)C [compound 140] (H-[NMeI]VLSLD[dV]PIKLK([γGlu-C18 diacid])KILLEQEKQKKQREQAETN[Dap]QILAQV-NH2)
0.16,32,> 250,CC[C@H](C)[C@H](NC)C(=O)N[C@H](C(=O)N[C@@H](CC(C)C)C(=O)N[C@@H](CO)C(=O)N[C@@H](CC(C)C)C(=O)N[C@@H](CC(=O)O)C(=O)N[C@@H](C(=O)N1CCC[C@H]1C(=O)N[C@H](C(=O)N[C@@H](CCCCN)C(=O)N[C@@H](CC(C)C)C(=O)N[C@@H](CCCCNC(=O)CC[C@H](NC(=O)CCCCCCCCCCCCCCCCC(=O)O)C(=O)O)C(=O)N[C@@H](CCCCN)C(=O)N[C@H](C(=O)N[C@@H](CC(C)C)C(=O)N[C@@H](CC(C)C)C(=O)N[C@@H](CCC(=O)O)C(=O)N[C@@H](CCC(N)=O)C(=O)N[C@@H](CCC(=O)O)C(=O)N[C@@H](CCCCN)C(=O)N[C@@H](CCC(N)=O)C(=O)N[C@@H](CCCCN)C(=O)N[C@@H](CCCCN)C(=O)N[C@@H](CCC(N)=O)C(=O)N[C@@H](CCCNC(=N)N)C(=O)N[C@@H](CCC(=O)O)C(=O)N[C@@H](CCC(N)=O)C(=O)N[C@@H](C)C(=O)N[C@@H](CCC(=O)O)C(=O)N[C@H](C(=O)N[C@@H](CC(N)=O)C(=O)NC1(C(=O)N[C@@H](CCC(N)=O)C(=O)N[C@H](C(=O)N[C@@H](CC(C)C)C(=O)N[C@@H](C)C(=O)N[C@@H](CCC(N)=O)C(=O)N[C@H](C(N)=O)C(C)C)[C@@H](C)CC)CCNCC1)[C@@H](C)O)[C@@H](C)CC)[C@@H](C)CC)C(C)C)C(C)C [compound 141] (H-[NMeI]VLSLD[dV]PIKLK([γGlu-C18 diacid])KILLEQEKQKKQREQAETN[Api]QILAQV-NH2)
0.07,3,> 250,CC[C@H](C)[C@H](NC)C(=O)N[C@H](C(=O)N[C@@H](CC(C)C)C(=O)N[C@@H](CO)C(=O)N[C@@H](CC(C)C)C(=O)N[C@@H](CC(=O)O)C(=O)N[C@@H](C(=O)N1CCC[C@H]1C(=O)N[C@H](C(=O)N[C@@H](CCCCN)C(=O)N[C@@H](CC(C)C)C(=O)N[C@@H](CCCCNC(=O)CC[C@H](NC(=O)CCCCCCCCCCCCCCCCC(=O)O)C(=O)O)C(=O)N[C@@H](CCCCN)C(=O)N[C@H](C(=O)N[C@@H](CC(C)C)C(=O)N[C@@H](CC(C)C)C(=O)N[C@@H](CCC(=O)O)C(=O)N[C@@H](CCC(N)=O)C(=O)N[C@@H](CCC(=O)O)C(=O)N[C@@H](CCCCN)C(=O)N[C@@H](CCC(N)=O)C(=O)N[C@@H](CCCCN)C(=O)N[C@@H](CCCCN)C(=O)N[C@@H](CCC(N)=O)C(=O)N[C@@H](CCCNC(=N)N)C(=O)N[C@@H](CCC(=O)O)C(=O)N[C@@H](CCC(N)=O)C(=O)N[C@@H](C)C(=O)N[C@@H](CCC(=O)O)C(=O)N[C@H](C(=O)N[C@@H](CC(N)=O)C(=O)N[C@@H](CCC(=O)O)C(=O)N[C@@H](CCC(N)=O)C(=O)N[C@H](C(=O)N[C@@H](CC(C)C)C(=O)N[C@@H](C)C(=O)N[C@@H](CCC(N)=O)C(=O)N[C@H](C(N)=O)C(C)C)[C@@H](C)CC)[C@@H](C)O)[C@@H](C)CC)[C@@H](C)CC)C(C)C)C(C)C [compound 142] (H-[NMeI]VLSLD[dV]PIKLK([γGlu-C18 diacid])KILLEQEKQKKQREQAETNEQILAQV-NH2)
0.25,38,> 250,CC[C@H](C)[C@H](N)C(=O)N[C@H](C(=O)N[C@@H](CC(C)C)C(=O)N[C@@H](CO)C(=O)N[C@@H](CC(C)C)C(=O)N[C@@H](CC(=O)O)C(=O)N[C@@H](C(=O)N1CCC[C@H]1C(=O)N[C@H](C(=O)N[C@@H](CCCCN)C(=O)N[C@@H](CC(C)C)C(=O)N[C@@H](CCCCNC(=O)COCCOCCNC(=O)COCCOCCNC(=O)CC[C@H](NC(=O)CCCCCCCCCCCCCCCCC(=O)O)C(=O)O)C(=O)N[C@@H](CCC(N)=O)C(=O)N[C@H](C(=O)N[C@@H](CC(C)C)C(=O)N[C@@H](CC(C)C)C(=O)N[C@@H](CCCCN)C(=O)N[C@@H](CCC(N)=O)C(=O)N[C@@H](CCC(=O)O)C(=O)N[C@@H](CCCNC(=N)N)C(=O)N[C@@H](CCC(N)=O)C(=O)N[C@@H](CCCCN)C(=O)N[C@@H](CCCCN)C(=O)N[C@@H](CCC(N)=O)C(=O)N[C@@H](CCCNC(=N)N)C(=O)N[C@@H](CCC(=O)O)C(=O)N[C@@H](CCC(N)=O)C(=O)N[C@@H](C)C(=O)N[C@@H](CCC(=O)O)C(=O)N[C@@H](CCCCN)C(=O)N[C@@H](CC(N)=O)C(=O)N[C@@H](CCCCN)C(=O)N[C@@H](CCC(N)=O)C(=O)N[C@H](C(=O)N[C@@H](CC(C)C)C(=O)N[C@@H](CCC(=O)O)C(=O)N[C@@H](CCC(N)=O)C(=O)N[C@H](C(N)=O)C(C)C)[C@@H](C)CC)[C@@H](C)CC)[C@@H](C)CC)C(C)C)C(C)C [compound 150] (H-IVLSLD[dV]PIKLK([AEEA-AEEA-γGlu-C18 diacid])QILLKQERQKKQREQAEKNKQILEQV-NH2)
